Measurements published in patent publication US11623919B2, “Heterocyclic P2X7 antagonists” (AXXAM S.P.A., priority 2017, dated 2023).

Legend:
Test in all cases: Screen Quest Fluo-8 No Wash Calcium Assay (Bz-ATP evoked Ca2+ influx, FLIPR)
Type in all cases: cell-based
[1] = molecular target: T1, P2X7 receptor (Homo sapiens, UniProt Q99572); parameters: hP2X7 (IC50; nM); other: hP2X7; HEK-293 cells stably transfected with P2X7 receptor, Bz-ATP at EC80, Fluo-8 NW; potency; details: hP2X7; HEK-293 cells stably transfected with P2X7 receptor, Bz-ATP at EC80, Fluo-8 NW; potency ranges A-D
T1 sequence (Q99572 1-595): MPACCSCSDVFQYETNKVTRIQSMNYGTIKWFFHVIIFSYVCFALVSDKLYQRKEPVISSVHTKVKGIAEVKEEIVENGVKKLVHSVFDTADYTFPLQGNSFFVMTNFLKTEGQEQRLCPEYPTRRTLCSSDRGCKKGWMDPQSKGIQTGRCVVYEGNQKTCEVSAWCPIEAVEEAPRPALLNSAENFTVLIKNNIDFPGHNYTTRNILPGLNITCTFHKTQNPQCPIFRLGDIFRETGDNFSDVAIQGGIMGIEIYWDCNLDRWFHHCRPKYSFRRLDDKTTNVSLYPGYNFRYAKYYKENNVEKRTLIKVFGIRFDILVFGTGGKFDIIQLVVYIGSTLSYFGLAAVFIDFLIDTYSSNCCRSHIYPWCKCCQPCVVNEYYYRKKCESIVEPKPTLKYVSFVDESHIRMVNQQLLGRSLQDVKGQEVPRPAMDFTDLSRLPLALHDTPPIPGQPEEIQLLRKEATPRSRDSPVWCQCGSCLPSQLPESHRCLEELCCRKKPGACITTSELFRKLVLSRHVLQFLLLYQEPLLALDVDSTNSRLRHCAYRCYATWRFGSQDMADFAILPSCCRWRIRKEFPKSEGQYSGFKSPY
Summary of the method: (§1)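 HEK-293 cells stably expressing P2X7 were loaded with Fluo-8 NW for 1 h at RT, then given compound, and 5 min later Bz-ATP at EC80. Fluorescence was read by FLIPR in low divalent cation buffer (0.3 mM Ca2+, 0 mM Mg2+). IC50 came from percent inhibition relative to reference antagonist A438079.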

[2] = molecular target: T2, P2X7 receptor (Rattus norvegicus, UniProt Q64663); details: rP2X7; HEK-293 cells stably transfected with P2X7 receptor, Bz-ATP at EC80, Fluo-8 NW; potency ranges A-D
T2 construct: rP2X7 (IC50; nM); other: rP2X7; HEK-293 cells stably transfected with P2X7 receptor, Bz-ATP at EC80, Fluo-8 NW; potency
T2 sequence (Q64663 1-595): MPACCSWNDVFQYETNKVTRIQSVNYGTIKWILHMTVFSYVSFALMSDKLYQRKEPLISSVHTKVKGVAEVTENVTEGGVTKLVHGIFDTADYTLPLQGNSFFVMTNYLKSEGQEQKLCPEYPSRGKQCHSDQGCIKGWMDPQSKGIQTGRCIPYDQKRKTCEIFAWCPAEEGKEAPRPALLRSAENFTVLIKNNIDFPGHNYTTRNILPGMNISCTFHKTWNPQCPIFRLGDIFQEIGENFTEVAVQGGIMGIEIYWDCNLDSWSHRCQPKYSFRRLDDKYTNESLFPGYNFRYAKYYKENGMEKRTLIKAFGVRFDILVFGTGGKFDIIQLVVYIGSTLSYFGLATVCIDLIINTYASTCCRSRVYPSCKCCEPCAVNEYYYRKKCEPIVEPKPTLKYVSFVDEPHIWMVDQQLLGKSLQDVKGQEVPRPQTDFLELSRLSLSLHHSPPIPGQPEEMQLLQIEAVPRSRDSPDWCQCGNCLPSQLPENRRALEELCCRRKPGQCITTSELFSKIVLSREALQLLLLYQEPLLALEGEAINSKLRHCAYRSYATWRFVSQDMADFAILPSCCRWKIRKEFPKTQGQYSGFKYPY
Summary of the method: as §1

[3] = molecular target: T3, P2X7 receptor (Mus musculus, UniProt Q9Z1M0); details: mP2X7; HEK-293 cells stably transfected with P2X7 receptor, Bz-ATP at EC80, Fluo-8 NW; potency ranges A-D
T3 construct: mP2X7 (IC50; nM); other: mP2X7; HEK-293 cells stably transfected with P2X7 receptor, Bz-ATP at EC80, Fluo-8 NW; potency
T3 sequence (Q9Z1M0 1-595): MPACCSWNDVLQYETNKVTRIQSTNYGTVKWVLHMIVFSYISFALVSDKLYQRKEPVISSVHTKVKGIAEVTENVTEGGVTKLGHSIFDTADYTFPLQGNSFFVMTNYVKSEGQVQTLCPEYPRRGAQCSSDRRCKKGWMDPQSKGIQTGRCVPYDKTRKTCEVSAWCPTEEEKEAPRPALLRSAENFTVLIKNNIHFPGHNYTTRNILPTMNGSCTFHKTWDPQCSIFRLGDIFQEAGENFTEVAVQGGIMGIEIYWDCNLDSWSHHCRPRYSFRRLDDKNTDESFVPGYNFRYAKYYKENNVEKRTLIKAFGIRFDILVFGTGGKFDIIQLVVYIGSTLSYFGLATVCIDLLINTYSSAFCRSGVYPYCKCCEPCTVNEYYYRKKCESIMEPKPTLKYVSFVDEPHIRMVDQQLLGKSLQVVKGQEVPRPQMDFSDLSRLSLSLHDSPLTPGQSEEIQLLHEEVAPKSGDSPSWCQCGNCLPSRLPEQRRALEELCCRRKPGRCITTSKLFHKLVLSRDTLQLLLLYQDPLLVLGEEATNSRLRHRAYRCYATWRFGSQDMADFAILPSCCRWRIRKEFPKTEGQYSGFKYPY
Summary of the method: as §1

For CCOCn1c(Cc2c(F)cccc2Cl)noc1=O [Example 101, 3-[(2-chloro-6-fluorophenyl)methyl]-4-(ethoxymethyl)-4,5-dihydro-1,2,4-oxadiazol-5-one], the IC50 [1] was > 10000 nM, the IC50 [2] was > 10000 nM and the IC50 [3] was > 10000 nM.
In the case of O=c1onc(CCc2c(F)cccc2Cl)n1Cc1ccc(F)cc1 [Example 145, 3-[2-(2-chloro-6-fluorophenyl)ethyl]-4-(4-fluorobenzyl)-1,2,4-oxadiazol-5(4H)-one], the IC50 [1] was 200 to 1000 nM, the IC50 [2] was 200 to 1000 nM and the IC50 [3] was 200 to 1000 nM.
O=c1onc(CC2CCC(F)(F)CC2)n1CC1CCCCC1 [Example 133, 4-(cyclohexylmethyl)-3-[(4,4-difluorocyclohexyl)methyl]-4,5-dihydro-1,2,4-oxadiazol-5-one] was tested, and the IC50 [1] was 1000 to 10000 nM, the IC50 [2] was 1000 to 10000 nM and the IC50 [3] was > 10000 nM.
O=c1onc(Cc2c(F)cccc2Cl)n1CCCN1CCC(F)(F)CC1 [Example 182, 3-[(2-chloro-6-fluorophenyl)methyl]-4-[3-(4,4-difluoropiperidin-1-yl)propyl]-4,5-dihydro-1,2,4-oxadiazol-5-one] was tested, and the IC50 [1] was 1000 to 10000 nM, the IC50 [2] was > 10000 nM and the IC50 [3] was > 10000 nM.
Compound O=c1snc(Cc2c(F)cccc2Cl)n1Cc1ccc(F)cc1 [Example 139, 3-[(2-chloro-6-fluorophenyl)methyl]-4-[(4-fluorophenyl)methyl]-4,5-dihydro-1,2,4-thiadiazol-5-one] has an IC50 [1] of 200 to 1000 nM, an IC50 [2] of 200 to 1000 nM and an IC50 [3] of 1000 to 10000 nM.
Cc1cc(Cn2c(CC3CCC(F)(F)CC3)noc2=O)n(C)n1 [Example 195, 3-[(4,4-difluorocyclohexyl)methyl]-4-[(1,3-dimethyl-1H-pyrazol-5-yl)methyl]-1,2,4-oxadiazol-5(4H)-one] gave an IC50 [1] of 200 to 1000 nM, an IC50 [2] of 200 to 1000 nM and an IC50 [3] of 200 to 1000 nM.
CC(c1ccc(F)cc1)n1c(Cc2ccc(F)cc2)noc1=O (stereo not drawn) [Example 11, 4-[1-(4-fluorophenyl)ethyl]-3-[(4-fluorophenyl)methyl]-4,5-dihydro-1,2,4-oxadiazol-5-one] showed an IC50 [1] of 1000 to 10000 nM, an IC50 [2] of 1000 to 10000 nM and an IC50 [3] of 1000 to 10000 nM.
With O=c1onc(Cc2c(F)cccc2Cl)n1Cc1c(F)cccc1Cl [Example 18, bis[(2-chloro-6-fluorophenyl)methyl]-4,5-dihydro-1,2,4-oxadiazol-5-one] the IC50 [1] was 1000 to 10000 nM, the IC50 [2] was 1000 to 10000 nM and the IC50 [3] was 1000 to 10000 nM.
In the case of O=c1onc(CCc2c(F)cccc2Cl)n1CC1CCCCC1 [Example 146, 3-[2-(2-chloro-6-fluorophenyl)ethyl]-4-(cyclohexylmethyl)-1,2,4-oxadiazol-5(4H)-one], the IC50 [1] was 1000 to 10000 nM, the IC50 [2] was 1000 to 10000 nM and the IC50 [3] was > 10000 nM.
With O=c1onc(Cc2c(F)cccc2Cl)n1Cc1ccccc1Cl [Example 22, 3-[(2-chloro-6-fluorophenyl)methyl]-4-[(2-chlorophenyl)methyl]-4,5-dihydro-1,2,4-oxadiazol-5-one] the IC50 [1] was 1000 to 10000 nM, the IC50 [2] was 1000 to 10000 nM and the IC50 [3] was 1000 to 10000 nM.
Work on O=c1onc(CCc2c(F)cccc2Cl)n1CC1CCC(F)(F)CC1 [Example 147, 3-[2-(2-chloro-6-fluorophenyl)ethyl]-4-[(4,4-difluorocyclohexyl)methyl]-1,2,4-oxadiazol-5(4H)-one] yielded an IC50 [1] of 200 to 1000 nM, an IC50 [2] of 200 to 1000 nM and an IC50 [3] of 200 to 1000 nM.
For Cc1ncsc1Cn1c(Cc2c(F)cccc2Cl)noc1=O [Example 31, 3-[(2-chloro-6-fluorophenyl)methyl]-4-[(4-methyl-1,3-thiazol-5-yl)methyl]-4,5-dihydro-1,2,4-oxadiazol-5-one], the IC50 [1] was 1000 to 10000 nM, the IC50 [2] was > 10000 nM and the IC50 [3] was > 10000 nM.
In the case of O=c1onc(Cc2c(F)cccc2Cl)n1CCCC1CCCCC1 [Example 179, 3-[(2-chloro-6-fluorophenyl)methyl]-4-(3-cyclohexylpropyl)-4,5-dihydro-1,2,4-oxadiazol-5-one], the IC50 [1] was 1000 to 10000 nM, the IC50 [2] was > 10000 nM and the IC50 [3] was 1000 to 10000 nM.
With O=c1onc(Cc2c(F)cccc2Cl)n1CC1CCCOC1 (stereo not drawn) [Example 89, 3-[(2-chloro-6-fluorophenyl)methyl]-4-(oxan-3-ylmethyl)-4,5-dihydro-1,2,4-oxadiazol-5-one] the IC50 [1] was 1000 to 10000 nM, the IC50 [2] was 1000 to 10000 nM and the IC50 [3] was > 10000 nM.
In the case of O=c1onc(CC2CCC(F)(F)CC2)n1Cc1ccccc1Cl [Example 170, 4-[(2-chlorophenyl)methyl]-3-[(4,4-difluorocyclohexyl)methyl]-4,5-dihydro-1,2,4-oxadiazol-5-one], the IC50 [1] was < 200 nM, the IC50 [2] was < 200 nM and the IC50 [3] was 200 to 1000 nM.
For CC1CC(F)(F)CCN1Cc1noc(=O)n1Cc1c(F)cccc1Cl (stereo not drawn) [Example 226, 4-[(2-chloro-6-fluorophenyl)methyl]-3-[(4,4-difluoro-2-methylpiperidin-1-yl)methyl]-4,5-dihydro-1,2,4-oxadiazol-5-one], the IC50 [1] was < 200 nM, the IC50 [2] was < 200 nM and the IC50 [3] was < 200 nM.
Compound Cc1ccc(Cn2c(Cc3c(F)cccc3Cl)noc2=O)cc1 [Example 67, 3-[(2-chloro-6-fluorophenyl)methyl]-4-[(4-methylphenyl)methyl]-4,5-dihydro-1,2,4-oxadiazol-5-one] has an IC50 [1] of 1000 to 10000 nM, an IC50 [2] of 1000 to 10000 nM and an IC50 [3] of 1000 to 10000 nM.
O=c1onc(Cc2ccc(F)cc2)n1Cc1ccc(F)cc1Cl [Example 51, 4-[(2-chloro-4-fluorophenyl)methyl]-3-[(4-fluorophenyl)methyl]-4,5-dihydro-1,2,4-oxadiazol-5-one] showed an IC50 [1] of 1000 to 10000 nM, an IC50 [2] of 1000 to 10000 nM and an IC50 [3] of 1000 to 10000 nM.
Cc1nn(C)c(C)c1Cc1noc(=O)n1CC1CCCCC1 [Example 214, 4-(cyclohexylmethyl)-3-[(trimethyl-1H-pyrazol-4-yl)methyl]-4,5-dihydro-1,2,4-oxadiazol-5-one] was tested, and the IC50 [1] was < 200 nM, the IC50 [2] was 200 to 1000 nM and the IC50 [3] was 1000 to 10000 nM.
With O=c1onc(CC2CCC(F)(F)CC2)n1Cc1ccccc1F [Example 165, 3-[(4,4-difluorocyclohexyl)methyl]-4-[(2-fluorophenyl)methyl]-4,5-dihydro-1,2,4-oxadiazol-5-one] the IC50 [1] was 200 to 1000 nM, the IC50 [2] was < 200 nM and the IC50 [3] was 200 to 1000 nM.
With COc1cccc(Cn2c(Cc3c(F)cccc3Cl)noc2=O)c1 [Example 57, 3-[(2-chloro-6-fluorophenyl)methyl]-4-[(3-methoxyphenyl)methyl]-4,5-dihydro-1,2,4-oxadiazol-5-one] the IC50 [1] was 1000 to 10000 nM, the IC50 [2] was 1000 to 10000 nM and the IC50 [3] was 1000 to 10000 nM.
